Measurements published in patent US20250129033A1, “METAP2 INHIBITORS AND USES THEREOF” (Yissum Research Development Company of the Hebrew …, priority 2022, published 2025).

Experiments:
[1] = target: T1, MetAp2 in A375 cancer cells (Homo sapiens, UniProt P50579); assay: MetAp2 enzymatic activity in A375 cell homogenate; assay type: biochemical; conditions: 2.5 μM
T1 construct: host or cells: A375 cell homogenate (RIPA supernatant, 5 µg protein)
Procedure: (§1) A375 and MDA-MB-231 were sub cultivated using trypsin, then centrifuge and counted. To obtain a homogenate containing an equivalent cell number, cells were resuspended in an appropriate volume of cold RIPA containing a protease inhibitor cocktail. Insoluble cellular components were removed by centrifugation at 15,000 RPM for 10 min at 4° C. The protein content of the supernatant was determined according to the Bradford protein assay using BSA as the standard.
(§2) The enzymatic assay was performed using 5 μg protein per sample as described previously. […] An increase of fluorescence, due to substrate degradation during the enzymatic assay, was measured every 20 seconds for 1 h and 30 min at 37° C. using a plate reader (Wallac 1420 VICTOR plate reader, Perkin-Elmer Life Sciences, USA). […]
(§3) A375 and MDA-MB-231 were sub-cultivated using trypsin, then centrifuged and counted. […] The protein content of the supernatant was determined according to the Bradford protein assay using BSA as the standard. […] An increase of fluorescence, due to substrate degradation during the enzymatic assay, was measured every 20 seconds for 1 h and 30 min at 37° C. using a plate reader (Wallac 1420 VICTOR plate reader, Perkin-Elmer Life Sciences, USA). […]

[2] = test system: MDA-MB-231 xenograft; assay: MDA-MB-231 xenograft in mice; assay type: in vivo, Foxn1 nu mice
Procedure: Animal studies were approved by the Institutional Animal Care and Use Committee of the Faculty of Medicine of the Hebrew University and followed the guidelines for use of laboratory animals. 6-8-week-old male Foxn1 nu mice were S.C. injected with 5×10^6 A375 and MDA-MB-231 cells/mouse. Mice were I.P treated with 30 mg/kg and 15 mg/kg AD-3281 every other day and with 15 mg/kg, 7.5 mg/kg AD-3281 every other day in mice injected with A375 and MDA-MB-231 respectively. Tumor growth was measured with a digital caliper. At the end of the experiments after 18 or 15 days, mice were sacrificed, and tumors were surgically removed, weighed, volume was measured and histology stating was performed. AD-3281 was dissolved in 10:10:80 […]:ethanol:saline.
Animal studies were approved by the Institutional Animal Care and Use Committee of the Faculty of Medicine of the Hebrew University and followed the guidelines for use of laboratory animals. 6-8-week-old male Foxn1 nu mice were S.C. injected with 5×10^6 A375 or MDA-MB-231 cells/mouse. Mice were I.P treated with 30 mg/kg and 15 mg/kg AD-3281 q.o.d and with 15 mg/kg, 7.5 mg/kg AD-3281 (dissolved in 10:10:80 Cremophor EL: Ethanol: Saline) q.o.d in mice injected with A375 and MDA-MB-231 respectively. Tumor growth was measured with a digital caliper. At the end of the experiments after 18 or 15 days, mice were sacrificed, and tumors were surgically removed, weighed, volume was measured and histology stating was performed. Tumor tissues were resected at the end point and analyzed by immunohistology using standard protocol for paraffin fixed sections using anti-Ki-67 (Abcam, catalog number ab15580), anti-CD31 (Abcam, catalog number ab28364), anti-MetAp-2 (Ab134124, Abcam, Cambridge, UK) (Figure S.

[3] = target: T2, MetAp2 in MDA-MB-231 cancer cells (Homo sapiens, UniProt P50579); assay: MetAp2 enzymatic activity in MDA-MB-231 cell homogenate; assay type: biochemical; conditions: 2.5 μM
T2 construct: host or cells: MDA-MB-231 cell homogenate (RIPA supernatant, 5 µg protein)
Procedure: as §1, §2, §3

T1 sequence (P50579 whole entry): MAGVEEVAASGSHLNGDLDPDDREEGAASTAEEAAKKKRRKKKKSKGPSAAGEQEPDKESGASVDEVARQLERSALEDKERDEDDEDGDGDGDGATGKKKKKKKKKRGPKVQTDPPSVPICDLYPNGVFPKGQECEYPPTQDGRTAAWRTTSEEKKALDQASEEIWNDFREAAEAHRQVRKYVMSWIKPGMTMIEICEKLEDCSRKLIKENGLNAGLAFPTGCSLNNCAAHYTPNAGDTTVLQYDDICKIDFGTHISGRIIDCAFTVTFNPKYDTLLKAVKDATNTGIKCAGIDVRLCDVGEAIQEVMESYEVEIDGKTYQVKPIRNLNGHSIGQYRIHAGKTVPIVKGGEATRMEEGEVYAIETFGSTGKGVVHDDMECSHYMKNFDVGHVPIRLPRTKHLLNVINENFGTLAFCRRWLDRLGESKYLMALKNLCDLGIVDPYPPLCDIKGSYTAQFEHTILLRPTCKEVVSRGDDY
T2 sequence (P50579 whole entry): as above

COC1C(OC(=O)CC23CC4CC(CC(C4)C2)C3)CCC2(CO2)C1C1(C)OC1CC=C(C)C (stereo not shown) [AD-3281, Fumagillol-1-adamantylacetate]
inhibition of MetAp2 activity in A375 after 10 minutes ([1]; 10 minutes of exposure): Significant inhibition | reduction of MetAp2 enzymatic activity in A375 ([1]; over the course of 1 h): 64% | mean weight of extracted tumors ([2]; 7.5 mg/kg q.o.d (untreated 1 g)): 0.05 g | tumor volume inhibition ([2]; 7.5 mg/kg q.o.d, after 15 days): 97% | mean weight of extracted tumors ([2]; 15 mg/kg q.o.d (untreated 1 g)): 0.001 g | tumors that seemed completely eradicated ([2]; 15 mg/kg q.o.d, after 15 days, n=4): 3 tumors | systemic adverse effects ([2]; all treated mice): no signs of systemic adverse effects | weight loss (>10%) ([2]; all treated mice): not weight loss was detected | inhibition of MetAp2 activity in MDA-MB-231 after 10 minutes ([3]; 10 minutes of exposure): Significant inhibition | reduction of MetAp2 enzymatic activity in MDA-MB-231 ([3]; over the course of 1 h): 80%
